Data set [1] deals with T1, Cholesteryl ester transfer protein (Homo sapiens, UniProt P11597).
T1 sequence (P11597 whole entry): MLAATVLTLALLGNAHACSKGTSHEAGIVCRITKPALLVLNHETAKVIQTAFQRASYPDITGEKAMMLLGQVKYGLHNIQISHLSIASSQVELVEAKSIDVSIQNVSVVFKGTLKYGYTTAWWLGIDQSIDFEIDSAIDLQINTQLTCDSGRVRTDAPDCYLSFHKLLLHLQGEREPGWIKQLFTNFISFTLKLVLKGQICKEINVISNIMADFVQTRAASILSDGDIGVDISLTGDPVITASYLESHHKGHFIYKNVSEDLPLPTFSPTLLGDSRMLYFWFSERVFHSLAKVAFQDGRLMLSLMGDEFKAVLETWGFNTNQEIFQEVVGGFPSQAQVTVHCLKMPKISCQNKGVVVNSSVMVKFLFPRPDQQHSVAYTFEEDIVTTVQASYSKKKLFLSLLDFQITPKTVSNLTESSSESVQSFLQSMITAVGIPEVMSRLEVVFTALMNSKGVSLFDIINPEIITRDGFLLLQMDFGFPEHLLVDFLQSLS
Nature of the data set: Inhibition of human plasma-derived CETP activity by scintillation proximity assay. It is filed as cell-free. (In general: SPA uses beads or plates that emit light when radiolabelled molecules are held near them.)

The target of data set [2] is Phospholipid transfer protein (Homo sapiens) (UniProt P55058). The data set can be described thus: Inhibition of PLTP activity assessed as phosphatidylcholine transferred from [3H]phosphatidylcholine (dipalmitoyl)-labeled liposomes to HDL by cell based liquid scintillation counter.
Data set [3] concerns the target T2, Hepatic triacylglycerol lipase (Homo sapiens) (UniProt P11150).
T2 sequence (whole entry): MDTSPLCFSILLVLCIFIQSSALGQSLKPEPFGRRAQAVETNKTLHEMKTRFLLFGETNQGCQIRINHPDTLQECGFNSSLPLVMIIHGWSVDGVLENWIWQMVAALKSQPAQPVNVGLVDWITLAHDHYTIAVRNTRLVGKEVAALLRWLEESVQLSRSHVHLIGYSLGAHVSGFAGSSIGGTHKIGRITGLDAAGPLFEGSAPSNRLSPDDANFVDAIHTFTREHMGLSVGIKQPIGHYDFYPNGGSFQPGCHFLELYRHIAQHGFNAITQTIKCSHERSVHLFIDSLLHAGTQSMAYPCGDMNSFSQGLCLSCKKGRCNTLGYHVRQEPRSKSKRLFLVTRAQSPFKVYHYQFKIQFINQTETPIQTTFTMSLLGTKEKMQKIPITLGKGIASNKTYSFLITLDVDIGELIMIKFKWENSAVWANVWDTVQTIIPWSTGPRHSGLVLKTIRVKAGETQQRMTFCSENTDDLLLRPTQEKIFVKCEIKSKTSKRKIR
The data set can be described thus: Inhibition of hepatic lipase activity assessed as release of free fatty acid from hydrolysis of VLDL by cell based assay.

The target in data set [4] is T3, Microsomal triglyceride transfer protein large subunit (Homo sapiens) (UniProt P55157).
T3 sequence (whole entry): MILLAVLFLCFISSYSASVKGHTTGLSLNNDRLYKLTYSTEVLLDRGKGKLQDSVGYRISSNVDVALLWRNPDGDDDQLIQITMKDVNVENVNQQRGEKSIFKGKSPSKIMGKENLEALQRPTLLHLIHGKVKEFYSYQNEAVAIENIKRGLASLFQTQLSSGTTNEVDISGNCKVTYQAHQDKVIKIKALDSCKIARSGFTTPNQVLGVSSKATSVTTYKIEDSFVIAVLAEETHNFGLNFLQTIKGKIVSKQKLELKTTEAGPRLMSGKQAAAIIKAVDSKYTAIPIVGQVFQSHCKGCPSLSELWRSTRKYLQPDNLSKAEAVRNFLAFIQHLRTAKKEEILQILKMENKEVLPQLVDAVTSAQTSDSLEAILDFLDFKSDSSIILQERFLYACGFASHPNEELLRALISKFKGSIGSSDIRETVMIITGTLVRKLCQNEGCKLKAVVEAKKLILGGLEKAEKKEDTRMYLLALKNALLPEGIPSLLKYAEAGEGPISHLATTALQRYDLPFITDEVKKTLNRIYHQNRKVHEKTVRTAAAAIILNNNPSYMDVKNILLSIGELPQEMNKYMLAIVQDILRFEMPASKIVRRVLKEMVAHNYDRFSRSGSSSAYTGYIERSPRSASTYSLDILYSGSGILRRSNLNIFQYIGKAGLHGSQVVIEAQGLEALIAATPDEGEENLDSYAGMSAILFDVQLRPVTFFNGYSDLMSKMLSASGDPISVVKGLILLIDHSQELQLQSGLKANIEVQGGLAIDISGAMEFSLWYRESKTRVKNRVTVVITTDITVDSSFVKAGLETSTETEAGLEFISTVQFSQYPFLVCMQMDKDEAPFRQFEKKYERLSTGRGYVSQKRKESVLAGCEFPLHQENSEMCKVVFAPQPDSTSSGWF
Nature of the data set: Inhibition of microsomal triglyceride transfer protein by cell based assay.

Data set [5] deals with T4, Endothelial lipase (Homo sapiens) (UniProt Q9Y5X9).
T4 sequence (whole entry): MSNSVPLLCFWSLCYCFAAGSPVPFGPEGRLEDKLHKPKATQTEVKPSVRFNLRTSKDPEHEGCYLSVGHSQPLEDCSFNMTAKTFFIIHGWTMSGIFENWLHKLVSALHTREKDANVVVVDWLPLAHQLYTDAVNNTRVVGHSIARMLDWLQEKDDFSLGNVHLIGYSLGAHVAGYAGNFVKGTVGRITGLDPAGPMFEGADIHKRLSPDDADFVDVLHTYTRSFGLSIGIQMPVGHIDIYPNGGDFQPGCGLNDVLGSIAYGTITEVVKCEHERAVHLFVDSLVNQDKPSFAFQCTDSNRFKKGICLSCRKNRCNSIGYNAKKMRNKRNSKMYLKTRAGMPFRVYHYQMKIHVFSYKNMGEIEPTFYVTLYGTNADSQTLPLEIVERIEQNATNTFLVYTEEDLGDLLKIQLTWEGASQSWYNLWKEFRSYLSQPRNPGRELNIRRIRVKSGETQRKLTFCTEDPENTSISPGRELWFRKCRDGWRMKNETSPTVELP
The data set can be described thus: Inhibition of endothelial lipase by cell based assay.

The nature of data set [6]: Half life in rat at 2 to 3 mg/kg, iv and 10 mg/kg, po. Format: ADME, organism-based. The following applies: in vivo.
The subject of data set [7] is Hamster. The data set can be described thus: Increase in HDLC level in high-fat fed hamster model at 10 mg/kg, po for 5 days measured after 2 hrs of last dose. It is filed as functional, Cricetinae.
In data set [8] the test system is Hamster. The data set can be described thus: Increase in HDLC level in high-fat fed hamster model at 30 mg/kg, po for 5 days measured after 2 hrs of last dose. Format: functional, Cricetinae.
For the next data set, the system named is Mus musculus. The data set can be described thus: Increase in HDLC level in normal chow diet-fed human CETP transgenic mouse model at 10 mg/kg, po for 5 days measured after 2 hrs of last dose. Format: functional.
Data set [9] concerns Cynomolgus monkey. Nature of the data set: Increase in HDLC level in po dosed normal chow diet-fed cynomolgus monkey. It is filed as functional, organism-based. Conditions: Macaca fascicularis.
In data set [10] the test system is Cynomolgus monkey. Nature of the data set: Ex vivo inhibition of CETP in normal chow diet-fed cynomolgus monkey at 30 mg/kg, po for 5 days by Roar assay. It is filed as functional. The following applies: Macaca fascicularis, 120 h.
Data set [11] is described as follows: Plasma concentration in normal chow diet-fed cynomolgus monkey at 30 mg/kg, po for 5 days. Details: dose 30 mg/kg, route oral. It is filed as ADME, organism-based, Macaca fascicularis.

Activity calls are given as the source filed them. The rule behind the calls is not given here.

Results on one compound are retold here after ChEMBL document CHEMBL1152778, “Design, synthesis, and biological evaluation of (2R,alphaS)-3,4-dihydro-2-[3-(1,1,2,2-tetrafluoroethoxy)phenyl]-5-[3-(trifluoromethoxy)-phenyl]-alpha-(trifluoromethyl)-1(2H)-quinolineethanol as potent and orally active cholesteryl ester transfer protein inhibitor” (J Med Chem, 2009).

Sequence of Phospholipid transfer protein (Homo sapiens) (P55058 whole entry): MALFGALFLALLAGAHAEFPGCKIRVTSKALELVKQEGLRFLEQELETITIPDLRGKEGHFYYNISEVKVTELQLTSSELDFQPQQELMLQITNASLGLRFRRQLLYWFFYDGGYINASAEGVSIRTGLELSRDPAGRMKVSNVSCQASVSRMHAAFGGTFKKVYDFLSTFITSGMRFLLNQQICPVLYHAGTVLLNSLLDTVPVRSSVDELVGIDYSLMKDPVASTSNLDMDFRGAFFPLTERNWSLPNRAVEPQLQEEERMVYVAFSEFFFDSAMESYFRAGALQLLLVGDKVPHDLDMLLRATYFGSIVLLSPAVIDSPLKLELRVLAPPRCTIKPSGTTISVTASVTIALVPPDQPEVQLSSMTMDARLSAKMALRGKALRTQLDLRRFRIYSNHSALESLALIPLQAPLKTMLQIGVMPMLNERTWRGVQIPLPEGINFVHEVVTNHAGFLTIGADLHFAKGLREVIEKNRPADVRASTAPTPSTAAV

In data set [1], `O[C@@H](CN1c2cccc(-c3cccc(OC(F)(F)F)c3)c2CC[C@@H]1c1cccc(OC(F)(F)C(F)F)c1)C(F)(F)F` had a half-maximal inhibitory concentration (IC50) of 39 nM. The result in data set [2], in data set [3], in data set [4] and in data set [5] was inactive. The same compound showed a half-life in [6] of 28 h. In addition, the Activity in the data set with Hamster [7] is 36%; in the data set on Hamster [8], 40%; in the data set with Mus musculus it was 36%; in the data set on Cynomolgus monkey [9] it was “Dose-dependent effect”. This compound also showed an inhibition in vivo at 30 mg/kg with Cynomolgus monkey [10] of 67%. Moreover, in data set [11], the concentration at 120 h worked out at 5.9 µM.

By IC50 is commonly meant the concentration at which inhibition is half-maximal. For orientation: half-life means the time in which the quantity being followed falls by half. As a reminder, the inhibition in vivo is how much of the control response was suppressed.
